Data: US20060122153A1, “Antineoplastic ether lipid compounds with modifications at the sn-2 carbon” (priority 2003, published 2006)

Assays:
B16/F10 melanoma = assay: B16/F10 murine melanoma (iv./iv.) therapeutic model; format: in vivo, mice; settings: iv. treatment, lung tumor nodules
Description: Female C57/BL6 mice (5/group) were inoculated iv. with 5×10^4 cells in 0.2 mL PBS (day 0). On days 10, 12, 14, 16, & 18 post-tumor inoculation, mice were treated iv. with the ether lipid to be tested, along with ELL-12 (L), D-EL, L-EL or Control (0.9% NaCl). Mice were sacrificed by carbon dioxide inhalation on day 22, lungs were excised, inflated and fixed with 10% Formalin. Lungs were counted “blind” for tumor nodules using a magnifier. The mean number of nodules per treatment group was determined.

whole human blood = assay: Hemolysis assay with whole human blood; settings: whole human blood; for H10: concentration producing 10% hemolysis; for H50: concentration producing 50% hemolysis
Description: Venous blood was collected in 10 mL Vacutainer tubes containing EDTA using a 21G needle or larger.
Stock solutions of 20 mM test sample in phosphate buffered saline (PBS) were prepared as follows:
Then 270 uL of whole blood was aliquotted in duplicate mini test tubes using positive displacement pipet. Next, 30 uL of each working stock solution, in duplicate, was added to the whole blood. Next, 30 uL of PBS was added for background control. The samples were capped or sealed with Parafilm and gently mixed. The blood was incubated at 37° C. in gentle rotating water bath for 30 minutes. Final concentration of test sample was 10% of working stock solution.
Total hemolysis samples of 1,% and 10% whole blood samples in deionized water were prepared as follows:
The samples were freeze thawed 3× in liquid nitrogen then wafer bath. The samples were then centrifuged 10 minutes at 1500 RPM. Next, 100 uL of supernatant was transferred to a cuvette and 1 mL deionized water was added. The absorbance was read at 550 nm vs. water blank.
H10 and H50 were calculated by graphing Percent Total Hemolysis vs. Test Sample Concentration. The Percent Total Henolysis=(average o.d of test sample)/(average o.d. of total hemolysis sample)×100

HOP-62 = assay: NCI growth inhibition screen, non-small cell lung panel; format: cell-based, human; settings: for Performance as compared to ET-18-O—CH3: HOP-62, NS cell lung, from GI50s; for activity compared to other compounds (in words): HOP-62 cells, NCI screen
Description: (§1) Candidates deemed suitable for in vivo testing were then synthesized in large scale quantities and some of this material was sent to the NCI's Developmental Therapeutics Program for a battery of growth inhibitory studies against various human tumor cell lines (60 cell lines, 9 different panels). The remainder of the material was used to assess in vivo efficacy using murine tumor models. Additionally, studies were conducted on the lead candidates to discern mechanism of action with particular emphasis on these agents apoptotic ability as measured by caspase 3 activity. The details (materials and methods) for these various assays are described further in the following discussion.
(§2) Ten compounds were also sent to NCI's Drug Discovery Program for screening against numerous human tumor cell lines (9 panels total: renal ovarian, colon, CNS, non-small cell lung, leukemia, breast, melanoma, and prostate). The data are shown in FIGS. 2a-i which also include data regarding D- and L-ET-18-OCH3 (listed as L-EL and D-EL in the figures). Upon examining the data, one is struck by how 1R and 1a′S standout in comparison to the other compounds, especially for the renal, ovarian, colon, and CNS panels.

TK-10 = assay: NCI growth inhibition screen, renal panel; format: cell-based, human; set-up: key: = means equivalent activity; + means that it appears to be significantly better (i.e., by ˜2x); < means it appears to be less active than ET18OCH3 (˜2x); a combination like =/+ or </+ means that activity is dependent upon the isomer; a combination like =/+ or </+ means that activity is dependent upon the isomer; settings: TK-10, Renal; from GI50s
Description: as §1, §2

SN12C = assay: NCI growth inhibition screen, renal panel; format: cell-based, human; set-up: key: = means equivalent activity; + means that it appears to be significantly better (i.e., by ˜2x); < means it appears to be less active than ET18OCH3 (˜2x); a combination like =/+ or </+ means that activity is dependent upon the isomer; a combination like =/+ or </+ means that activity is dependent upon the isomer; settings: from GI50s
Description: as §1, §2

786-0 = assay: NCI growth inhibition screen, renal panel; format: cell-based, human; set-up: key: = means equivalent activity; + means that it appears to be significantly better (i.e., by ˜2x); < means it appears to be less active than ET18OCH3 (˜2x); a combination like =/+ or </+ means that activity is dependent upon the isomer; a combination like =/+ or </+ means that activity is dependent upon the isomer; settings: 786-0, Renal; from GI50s
Description: as §1, §2

ACHIN = assay: NCI growth inhibition screen, renal panel; format: cell-based, human; set-up: key: = means equivalent activity; + means that it appears to be significantly better (i.e., by ˜2x); < means it appears to be less active than ET18OCH3 (˜2x); a combination like =/+ or </+ means that activity is dependent upon the isomer; a combination like =/+ or </+ means that activity is dependent upon the isomer; settings: from GI50s
Description: as §1, §2

RXF 393 = assay: NCI growth inhibition screen, renal panel; format: cell-based, human; set-up: key: = means equivalent activity; + means that it appears to be significantly better (i.e., by ˜2x); < means it appears to be less active than ET18OCH3 (˜2x); a combination like =/+ or </+ means that activity is dependent upon the isomer; a combination like =/+ or </+ means that activity is dependent upon the isomer; settings: RXF 393, Renal; from GI50s
Description: as §1, §2

A498 = assay: NCI growth inhibition screen, renal panel; format: cell-based, human; set-up: key: = means equivalent activity; + means that it appears to be significantly better (i.e., by ˜2x); < means it appears to be less active than ET18OCH3 (˜2x); a combination like =/+ or </+ means that activity is dependent upon the isomer; a combination like =/+ or </+ means that activity is dependent upon the isomer; settings: from GI50s
Description: as §1, §2

CAK-1 = assay: NCI growth inhibition screen, renal panel; format: cell-based, human; set-up: key: = means equivalent activity; + means that it appears to be significantly better (i.e., by ˜2x); < means it appears to be less active than ET18OCH3 (˜2x); a combination like =/+ or </+ means that activity is dependent upon the isomer; a combination like =/+ or </+ means that activity is dependent upon the isomer; settings: CAK-1, Renal; from GI50s
Description: as §1, §2

UO-31 = assay: NCI growth inhibition screen, renal panel; format: cell-based, human; set-up: key to Performance as compared to ET-18-O—CH3: = means equivalent activity; + means that it appears to be significantly better (i.e., by ˜2x); < means it appears to be less active than ET18OCH3 (˜2x); a combination like =/+ or </+ means that activity is dependent upon the isomer; a combination like =/+ or </+ means that activity is dependent upon the isomer; settings: for Performance as compared to ET-18-O—CH3: UO-31, Renal, from GI50s; for activity compared to ET-18-OCH3 (in words): UO-31 cell line, NCI screen
Description: as §1, §2

CCCCCCCCCCCCCCCCCCOC[C@@H](COP(=O)([O-])OCC[N+](C)(C)C)OS(C)(=O)=O [1a′S]
activity against B16/F10 in mice (in words) (B16/F10 melanoma): exhibited activity
H10 (whole human blood): 800 µM
H50 (whole human blood): >2000 µM
Performance as compared to ET-18-O—CH3 (HOP-62): +/=
activity compared to other compounds (in words) (HOP-62): better than a few of the other compounds
Performance as compared to ET-18-O—CH3 (TK-10): 0
Performance as compared to ET-18-O—CH3 (SN12C): 0
Performance as compared to ET-18-O—CH3 (786-0): 0
Performance as compared to ET-18-O—CH3 (ACHIN): 0
Performance as compared to ET-18-O—CH3 (RXF 393): 32
Performance as compared to ET-18-O—CH3 (A498): 0
Performance as compared to ET-18-O—CH3 (CAK-1): 0
Performance as compared to ET-18-O—CH3 (UO-31): 64
activity compared to ET-18-OCH3 (in words) (UO-31): more active

CCCCCCCCCCCCCCCCCCOCC(COP(=O)([O-])OCC[N+](C)(C)C)OS(C)(=O)=O (stereo not shown) [Compound 1aR]
activity against B16/F10 in mice (in words) (B16/F10 melanoma): no activity
H10 (whole human blood): 1000 µM
H50 (whole human blood): >2000 µM
Performance as compared to ET-18-O—CH3 (HOP-62): +/=
activity compared to other compounds (in words) (HOP-62): better than a few of the other compounds
Performance as compared to ET-18-O—CH3 (TK-10): =
Performance as compared to ET-18-O—CH3 (SN12C): =
Performance as compared to ET-18-O—CH3 (786-0): =
Performance as compared to ET-18-O—CH3 (ACHIN): =
Performance as compared to ET-18-O—CH3 (RXF 393): =
Performance as compared to ET-18-O—CH3 (A498): =
Performance as compared to ET-18-O—CH3 (CAK-1): =
Performance as compared to ET-18-O—CH3 (UO-31): +
activity compared to ET-18-OCH3 (in words) (UO-31): more active
